13 compounds from PubChem BioAssay AID180 (DTP/NCI, 2004) can be followed below.

Values joined by “and” are separate entries in the source; they are usually repeats but may differ in a detail not shown here. Equal values may be shown once.

In the assay the test system is BDF1 mice, Adenocarcinoma 755 s.c., tumor weight T/C. Briefly: NCI In Vivo Anticancer Drug Screen. Data for tumor model Adenocarcinoma 755 (subcutaneous) in B6D2F1 (BDF1) mice. To be noted: endpoint: mean tumor weight, schedule: Q01DX011 (ip), higher = larger tumour. An outline of the steps:
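Values express treated (T) relative to vehicle-dosed control (C) animals, based on survival or tumour size measured after compound treatment of mice bearing a transplanted tumour.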

The mark [1] stands for this setting: dose: 15.0 mg/kg/injection, vehicle: methylcellulose (MC).
The mark [2] stands for this setting: dose: 4.0 mg/kg/injection, vehicle: carboxymethylcellulose (CMC).
The mark [3] stands for this setting: dose: 125.0 mg/kg/injection, vehicle: methylcellulose (MC).

For `O=S(=O)(O)C(Nc1ccccc1)c1ccccc1` (centres undefined), the T/C is, setting by setting: (dose: 20.0 mg/kg/injection, vehicle: carboxymethylcellulose (CMC)) 119 % of control; (dose: 40.0 mg/kg/injection, vehicle: carboxymethylcellulose (CMC)) 91 % of control; (dose: 80.0 mg/kg/injection, vehicle: carboxymethylcellulose (CMC)) 70 % of control.

On to `Nc1nc(I)c2[nH]cnc2n1`, for which the T/C under setting [1] was 52 % of control; the T/C (dose: 30.0 mg/kg/injection, vehicle: methylcellulose (MC)) is 109 % of control; the T/C (dose: 60.0 mg/kg/injection, vehicle: methylcellulose (MC)) is 41 % of control; the T/C (dose: 120.0 mg/kg/injection, vehicle: methylcellulose (MC)) was 44 % of control.

`CN(C)[C@@H]1C(=O)C(C(=O)NCc2nc3[nH]cnc(=S)c3[nH]2)=C(O)[C@@]2(O)C(=O)C3=C(O)c4c(O)cccc4[C@@](C)(O)[C@H]3C[C@@H]12`: the T/C is 64 % of control (dose: 1.0 mg/kg/injection, vehicle: carboxymethylcellulose (CMC)); 44 % of control (dose: 2.0 mg/kg/injection, vehicle: carboxymethylcellulose (CMC)); 78 % of control (dose: 3.0 mg/kg/injection, vehicle: carboxymethylcellulose (CMC)); 62 % of control under setting [2]; 1 % of control and 3 % of control and 5 % of control (dose: 14.0 mg/kg/injection, vehicle: carboxymethylcellulose (CMC)); 1 % of control and 2 % of control (dose: 28.0 mg/kg/injection, vehicle: carboxymethylcellulose (CMC)). For the same compound, for the setting “dose: 56.0 mg/kg/injection, vehicle: carboxymethylcellulose (CMC)”, the T/C is 6 % of control.

For the compound `CCCCNc1nc(SCc2ccc(Cl)cc2Cl)ncc1C`, the T/C was 78 % of control under setting [1]; 91 % of control (dose: 31.0 mg/kg/injection, vehicle: methylcellulose (MC)); 84 % of control (dose: 62.0 mg/kg/injection, vehicle: methylcellulose (MC)); 72 % of control under setting [3]; 60 % of control (dose: 250.0 mg/kg/injection, vehicle: methylcellulose (MC)).

Consider `CCCn1cnc2c(=S)nc(N)[nH]c21`, for which the T/C is 103 % of control (dose: 0.03 mg/kg/injection, vehicle: methylcellulose (MC)); 82 % of control (dose: 0.06 mg/kg/injection, vehicle: methylcellulose (MC)); 45 % of control (dose: 0.11 mg/kg/injection, vehicle: methylcellulose (MC)); 6 % of control and 7 % of control (dose: 0.22 mg/kg/injection, vehicle: methylcellulose (MC)); 8 % of control (dose: 0.44 mg/kg/injection, vehicle: methylcellulose (MC)); 4 % of control (dose: 0.88 mg/kg/injection, vehicle: methylcellulose (MC)). Also, the T/C (dose: 1.75 mg/kg/injection, vehicle: methylcellulose (MC)) is 4 % of control.

For `Nc1ccccc1N`, the T/C was 80 % of control (dose: 31.25 mg/kg/injection, vehicle: methylcellulose (MC)); 40 % of control (dose: 62.5 mg/kg/injection, vehicle: methylcellulose (MC)); 55 % of control under setting [3].

Consider `c1nc(SCCSc2ncnc3nc[nH]c23)c2[nH]cnc2n1`, for which the T/C was 93 % of control (dose: 4.6 mg/kg/injection, vehicle: methylcellulose (MC)); 86 % of control (dose: 9.3 mg/kg/injection, vehicle: methylcellulose (MC)); 74 % of control (dose: 18.7 mg/kg/injection, vehicle: methylcellulose (MC)); 1 % of control (dose: 75.0 mg/kg/injection, vehicle: methylcellulose (MC)); 2 % of control (dose: 150.0 mg/kg/injection, vehicle: methylcellulose (MC)).

With `N#Cc1cn(C2OC(CO)C(O)C2O)c2ncnc(N)c12` (centres undefined), the T/C (dose: 0.15 mg/kg/injection, vehicle: carboxymethylcellulose (CMC)) is 72 % of control.

Consider `CCCCC(CCCC)(C(=O)OCC)C(=O)OCC`, for which the T/C runs as follows: (dose: 40.6 mg/kg/injection, vehicle: methylcellulose (MC)) 65 % of control; (dose: 81.25 mg/kg/injection, vehicle: methylcellulose (MC)) 63 % of control; (dose: 162.5 mg/kg/injection, vehicle: methylcellulose (MC)) 52 % of control.

In the case of `C[C@@H]1CN(C(=O)CCBr)[C@@H](C)CN1C(=O)CCBr`, the T/C was 50 % of control (dose: 113.0 mg/kg/injection, vehicle: carboxymethylcellulose (CMC)); 48 % of control (dose: 225.0 mg/kg/injection, vehicle: carboxymethylcellulose (CMC)); 57 % of control (dose: 450.0 mg/kg/injection, vehicle: carboxymethylcellulose (CMC)).

Regarding `CCCCNc1ncnc2c1cnn2C`, the T/C is, setting by setting: under setting [2], 96 % of control; (dose: 8.0 mg/kg/injection, vehicle: carboxymethylcellulose (CMC)) 84 % of control; (dose: 16.0 mg/kg/injection, vehicle: carboxymethylcellulose (CMC)) 52 % of control; (dose: 31.25 mg/kg/injection, vehicle: carboxymethylcellulose (CMC)) 30 % of control; (dose: 32.0 mg/kg/injection, vehicle: carboxymethylcellulose (CMC)) 20 % of control.

For the compound `Clc1ncnc2c1ncn2C1CCCS1` (centres undefined), the T/C (dose: 25.0 mg/kg/injection, vehicle: methylcellulose (MC)) was 107 % of control.

With `C=CCSc1ncnc2c1ncn2C1OC(CO)C(O)C1O` (centres undefined), the T/C was 63 % of control (dose: 1.0 mg/kg/injection, vehicle: saline); 82 % of control (dose: 1.6 mg/kg/injection, vehicle: saline); 112 % of control (dose: 2.0 mg/kg/injection, vehicle: saline); 119 % of control (dose: 3.2 mg/kg/injection, vehicle: saline); 50 % of control (dose: 4.0 mg/kg/injection, vehicle: saline); 75 % of control (dose: 5.0 mg/kg/injection, vehicle: saline). The T/C was 40 % of control (dose: 6.3 mg/kg/injection, vehicle: saline); 16 % of control (dose: 7.0 mg/kg/injection, vehicle: saline); 38 % of control (dose: 10.0 mg/kg/injection, vehicle: saline); 42 % of control (dose: 12.5 mg/kg/injection, vehicle: saline); 2 % of control (dose: 13.0 mg/kg/injection, vehicle: saline); 8 % of control (dose: 20.0 mg/kg/injection, vehicle: saline). Further, the T/C was 1 % of control and 19 % of control (dose: 25.0 mg/kg/injection, vehicle: saline); 1 % of control (dose: 40.0 mg/kg/injection, vehicle: saline); 18 % of control (dose: 50.0 mg/kg/injection, vehicle: saline); 1 % of control (dose: 80.0 mg/kg/injection, vehicle: saline); 11 % of control (dose: 100.0 mg/kg/injection, vehicle: saline).

Usually T/C stands for the ratio of treated to control.
